The values that follow are results of earlier work, collected in US20140187505A1, “Cardiac Glycosides to Treat Cystic Fibrosis and Other IL-8 Dependent Disorders” (priority 2002, published 2014).

Read-outs that look alike come from different tables or passages of the source.

For series [1] the following is noted: mobile phase: methanol/water 30:70; cited from earlier work.
The conditions of series [2]: eluent acetonitrile/water 45:55; cited from earlier work.
For series [3] the following is noted: octanol/water (20 mM TRIS-HCl, pH 7.4), cited from earlier work.
The test system of series [4] is guinea-pig heart Na^+-K^+-ATPase. Conditions: cited from earlier work.

For 12-Acetyl-β-methyldigoxin, the “RM values (lipophilicity, reversed-phase thin layer chromatography)” value (shortened to “RM values”) in series [1] is listed as 1.26. The “K retentions for reversed-phase high pressure liquid chromatography” value (shortened to “K retentions”) in series [2] was 4.04. In series [3], the “P (partition coefficient in octanol/water system)” value is 746.0 ± 71.3. For the same compound, the ID50 in series [4] is recorded as 25.55 ± 1.70 ×10^−4 mol l^−1.
`CC(=O)O[C@@H]1C[C@H]2[C@@H](CC[C@@H]3C[C@@H](O[C@H]4C[C@H](O)[C@H](O[C@H]5C[C@H](O)[C@H](O[C@H]6C[C@H](O)[C@H](O)[C@@H](C)O6)[C@@H](C)O5)[C@@H](C)O4)CC[C@@]32C)[C@@]2(O)CC[C@H](C3=CC(=O)OC3)[C@@]12C` [12-Acetyldigoxin]: the “RM values” value in series [1] is given as 0.89. Further, in series [2], the “K retentions” value is reported as 1.60. The “P (partition coefficient in octanol/water system)” value in series [3] is 195.0 ± 17.5. In series [4], the ID50 is given as 20.90 ± 0.98 ×10^−4 mol l^−1.
Take `CC(=O)O[C@H]1C[C@]2(O)[C@@H]3CC[C@@H]4C[C@@H](O[C@H]5C[C@H](O)[C@H](O[C@H]6C[C@H](O)[C@H](O[C@H]7C[C@H](O)[C@H](O)[C@@H](C)O7)[C@@H](C)O6)[C@@H](C)O5)CC[C@]4(C)[C@H]3CC[C@]2(C)[C@H]1C1=CC(=O)OC1` [16-Acetylgitoxin]: the “RM values” value in series [1] was 0.89. Also, the “K retentions” value in series [2] is reported as 2.27. In addition, the “P (partition coefficient in octanol/water system)” value in series [3] is given as 144.0 ± 32.8. Besides, the ID50 in series [4] is listed as 0.85 ± 0.01 ×10^−4 mol l^−1.
Consider `C[C@H]1O[C@@H](O[C@H]2[C@@H](O)C[C@H](O[C@H]3[C@@H](O)C[C@H](O[C@H]4CC[C@@]5(C)[C@H](CC[C@@H]6[C@@H]5CC[C@]5(C)[C@@H](C7=CC(=O)OC7)[C@@H](OC=O)C[C@]65O)C4)O[C@@H]3C)O[C@@H]2C)C[C@H](O)[C@@H]1O` [16-Formylgitoxin], for which the “RM values” value in series [1] is given as 0.84. The “K retentions” value in series [2] is reported as 1.82. Moreover, in series [3], the “P (partition coefficient in octanol/water system)” value is recorded as 110.9 ± 6.2. In addition, the ID50 in series [4] is given as 0.78 ± 0.01 ×10^−4 mol l^−1.
For the compound `C[C@H]1O[C@@H](O[C@H]2[C@@H](O)C[C@H](O[C@H]3[C@@H](O)C[C@H](O[C@H]4CC[C@@]5(C)[C@H](CC[C@@H]6[C@@H]5CC[C@]5(C)[C@H](C7COC(=O)C7)CC[C@]65O)C4)O[C@@H]3C)O[C@@H]2C)C[C@H](O)[C@@H]1O` (some centres unmarked) [Dihydro-digitoxin], the “RM values” value in series [1] is listed as 1.42. For the same compound, in series [2], the “K retentions” value is 3.40. The “P (partition coefficient in octanol/water system)” value in series [3] is given as 800.0 ± 112.0. Besides, the ID50 in series [4] was 32.40 ± 2.85 ×10^−4 mol l^−1.
As for `C[C@@H]1O[C@@H](O[C@H]2C[C@@H](O)[C@]3(CO)[C@H]4[C@H](O)C[C@]5(C)[C@@H]([C@@H]6COC(=O)C6)CC[C@]5(O)[C@@H]4CC[C@]3(O)C2)[C@H](O)[C@H](O)[C@H]1O` [Dihydro-ouabain], the “RM values” value in series [1] is −0.71. Moreover, in series [2], the “K retentions” value is on record as 0.15. In series [3], the “P (partition coefficient in octanol/water system)” value is 0.20 ± 0.00. Besides, in series [4], the ID50 is 45.50 ± 3.90 ×10^−4 mol l^−1.
Take `C[C@H]1O[C@@H](O[C@H]2CC[C@@]3(C)[C@H](CC[C@@H]4[C@@H]3CC[C@]3(C)[C@@H](C5=CC(=O)OC5)[C@@H](O)C[C@]43O)C2)C[C@H](O)[C@@H]1O` [Gitoxigenin-mono-digitoxoside]: the “RM values” value in series [1] is 0.46. In series [2], the “K retentions” value is given as 0.83. In series [3], the “P (partition coefficient in octanol/water system)” value is on record as 60.1 ± 10.0. Further, the ID50 in series [4] is given as 2.56 ± 0.21 ×10^−4 mol l^−1.
As for `C[C@]12CC[C@H](O)C[C@H]1CC[C@@H]1[C@@H]2CC[C@]2(C)[C@@H](C3=CC(=O)OC3)[C@@H](O)C[C@]12O` [Gitoxigenin], the “RM values” value in series [1] is on record as 0.38. Besides, the “K retentions” value in series [2] is 0.67. Also, the “P (partition coefficient in octanol/water system)” value in series [3] is 44.1 ± 1.8. For the same compound, in series [4], the ID50 is listed as 21.37 ± 0.97 ×10^−4 mol l^−1.
As for `C[C@H]1O[C@@H](O[C@H]2[C@@H](O)C[C@H](O[C@H]3[C@@H](O)C[C@H](O[C@H]4CC[C@@]5(C)[C@H](CC[C@@H]6[C@@H]5CC[C@]5(C)[C@@H](C7=CC(=O)OC7)[C@@H](O)C[C@]65O)C4)O[C@@H]3C)O[C@@H]2C)C[C@H](O)[C@@H]1O` [Gitoxin], the “RM values” value in series [1] is given as 0.68. Moreover, the “K retentions” value in series [2] is recorded as 1.28. Further, in series [3], the “P (partition coefficient in octanol/water system)” value is 48.0 ± 11.2. Besides, the ID50 in series [4] is listed as 2.55 ± 0.14 ×10^−4 mol l^−1.
In the case of `CC(=O)O[C@H]1[C@@H](OC(C)=O)C[C@H](O[C@H]2[C@@H](OC(C)=O)C[C@H](O[C@H]3[C@@H](OC(C)=O)C[C@H](O[C@H]4CC[C@@]5(C)[C@H](CC[C@@H]6[C@@H]5CC[C@]5(C)[C@@H](C7=CC(=O)OC7)[C@@H](OC(C)=O)C[C@]65O)C4)O[C@@H]3C)O[C@@H]2C)O[C@@H]1C` [Pentaacetylgitoxin], the “RM values” value in series [1] was 1.86. Moreover, in series [2], the “K retentions” value was 49.45. Moreover, in series [3], the “P (partition coefficient in octanol/water system)” value was 2890.0 ± 668.0. The ID50 in series [4] was 112.00 ± 10.70 ×10^−4 mol l^−1.
For `C[C@H]1O[C@@H](O[C@H]2[C@@H](OC=O)C[C@H](O[C@H]3[C@@H](OC=O)C[C@H](O[C@H]4CC[C@@]5(C)[C@H](CC[C@@H]6[C@@H]5CC[C@]5(C)[C@@H](C7=CC(=O)OC7)[C@@H](OC=O)C[C@]65O)C4)O[C@@H]3C)O[C@@H]2C)C[C@H](OC=O)[C@@H]1OC=O` [Pentaformylgitoxin], the “RM values” value in series [1] is on record as 1.85. Besides, in series [2], the “K retentions” value was 8.99. Moreover, the “P (partition coefficient in octanol/water system)” value in series [3] is 1440.0 ± 118.3. Further, in series [4], the ID50 is on record as 0.23 ± 0.00 ×10^−4 mol l^−1.
Turning to `C[C@]12CC[C@H]3[C@@H](CC[C@]4(O)C[C@@H](O)CC[C@]34C=O)[C@@]1(O)CC[C@@H]2C1=CC(=O)OC1` [k-Strophanthidin], the “R values for reversed-phase thin layer chromatography” value in series [1] is −0.14. Besides, the “K retentions” value in series [2] is recorded as 0.42. For the same compound, the “P (partition coefficient in octanol/water system)” value in series [3] is recorded as 3.60 ± 0.5. Moreover, in series [4], the ID50 was 17.80 ± 0.81 ×10^−4 mol l^−1.
Take `CO[C@H]1C[C@H](O[C@H]2CC[C@]3(C=O)[C@H]4CC[C@]5(C)[C@@H](C6=CC(=O)OC6)CC[C@]5(O)[C@@H]4CC[C@]3(O)C2)O[C@H](C)[C@H]1O` [k-Strophanthin-α]: the “RM values” value in series [1] is recorded as −0.09. For the same compound, in series [2], the “K retentions” value is reported as 0.79. In addition, the “P (partition coefficient in octanol/water system)” value in series [3] is reported as 4.40 ± 0.3. The ID50 in series [4] is recorded as 1.29 ± 0.14 ×10^−4 mol l^−1.
`CO[C@H]1C[C@H](O[C@H]2CC[C@]3(C=O)[C@H]4CC[C@]5(C)[C@@H](C6=CC(=O)OC6)CC[C@]5(O)[C@@H]4CC[C@]3(O)C2)O[C@H](C)[C@H]1O[C@@H]1O[C@H](CO)[C@@H](O)[C@H](O)[C@H]1O` [k-Strophanthin-β]: the “RM values” value in series [1] is −0.50. The “K retentions” value in series [2] is recorded as 0.22. Besides, in series [3], the “P (partition coefficient in octanol/water system)” value was 0.11 ± 0.01. Also, the ID50 in series [4] is 2.51 ± 0.12 ×10^−4 mol l^−1.
Consider `CO[C@H]1C[C@H](O[C@H]2CC[C@]3(C=O)[C@H]4CC[C@]5(C)[C@@H](C6=CC(=O)OC6)CC[C@]5(O)[C@@H]4CC[C@]3(O)C2)O[C@H](C)[C@H]1O[C@@H]1O[C@H](CO[C@@H]2O[C@H](CO)[C@@H](O)[C@H](O)[C@H]2O)[C@@H](O)[C@H](O)[C@H]1O` [k-Strophanthin-γ], for which the “RM values” value in series [1] is on record as −0.62. The “K retentions” value in series [2] is given as 0.21. In series [3], the “P (partition coefficient in octanol/water system)” value is recorded as 0.15 ± 0.07. Besides, the ID50 in series [4] was 2.47 ± 0.25 ×10^−4 mol l^−1.
Regarding `COC1C(O)CC(OC2C(O)CC(OC3C(O)CC(OC4CCC5(C)C(CCC6C5CCC5(C)C(C7=CC(=O)OC7)CCC65O)C4)OC3C)OC2C)OC1C` (stereo not drawn) [β-Methyldigitoxin], the “RM values” value in series [1] is reported as 1.71. Moreover, the “K retentions” value in series [2] is reported as 8.28. Besides, the results for the “P (partition coefficient in octanol/water system)” value in series [3] and in series [3] (listed as B-methyl digitoxin) were 1300.0 ± 227.0 and 1300, respectively. In addition, the ID50 in series [4] is recorded as 0.40 ± 0.03 ×10^−4 mol l^−1.
As for `CO[C@H]1[C@@H](O)C[C@H](O[C@H]2[C@@H](O)C[C@H](O[C@H]3[C@@H](O)C[C@H](O[C@H]4CC[C@@]5(C)[C@H](CC[C@@H]6[C@@H]5C[C@@H](O)[C@]5(C)[C@@H](C7=CC(=O)OC7)CC[C@]65O)C4)O[C@@H]3C)O[C@@H]2C)O[C@@H]1C` [β-Methyldigoxin], the “K retentions” value in series [2] is on record as 1.19. Also, the “P (partition coefficient in octanol/water system)” value in series [3] is 63.3 ± 20.9. Further, the ID50 in series [4] is reported as 1.55 ± 0.06 ×10^−4 mol l^−1.
For the compound Dihydro-digoxin, the “RM values” value in series [1] was 0.24. For the same compound, in series [2], the “K retentions” value was 0.51. The ID50 in series [4] is on record as 40.90 ± 3.35 ×10^−4 mol l^−1.
As for α,β-Diacetyldigoxin, in series [1], the “RM values” value was 1.16. Further, the “K retentions” value in series [2] is given as 4.31. In series [3], the “P (partition coefficient in octanol/water system)” value was 392.0 ± 82.0. Also, in series [4], the ID50 is listed as 1.27 ± 0.02 ×10^−4 mol l^−1.
α,β-Dimethyldigoxin: the “RM values” value in series [1] was 0.94. The “K retentions” value in series [2] is 2.76. In series [3], the “P (partition coefficient in octanol/water system)” value was 138.0 ± 12.1. In series [4], the ID50 was 1.28 ± 0.06 ×10^−4 mol l^−1.
As to α-Acetyldigoxin, the “RM values” value in series [1] is 0.50. In series [2], the “K retentions” value is 0.99. Also, in series [3], the “P (partition coefficient in octanol/water system)” value is listed as 54.6 ± 7.8. In series [4], the ID50 is given as 2.50 ± 0.31 ×10^−4 mol l^−1.
